Source: US6800750B1, “Mc1-1 gene regulatory elements and a pro-apoptotic mc1-1 variant” (Dartmouth College, priority 1999, dated 2004)
Where two headings read alike, the source gives them in different places.

Legend:
[1] = system: human Mcl-1 5′-flanking sequence; experiment: Transient luciferase expression assay of Mcl-1 reporter plasmids in K-562 cells; type: cell-based
Text: A 1.7 kilobase (kb) XbaI/XmaI human Mcl-1 genomic fragment representing nucleotide residues −1656 to +160, where +1 denotes the major transcriptional start site, along with a 14 base pair (bp) adapter ligated to its 3′ end to place the luciferase gene in the correct reading frame, was inserted into NheI and HindIII digested pGL2-Basic luciferase reporter vector (Promega; Madison Wis.), yielding p(−1656)Mcl-1luc.
A series of 5′-deleted plasmids were constructed by double digestion of p(−1656)Mcl-1luc with SmaI, which cuts just upstream of the Mcl-1 insert, and restriction enzymes known to cut at unique sites within the Mcl-1 insert. […] Additional plasmids were constructed using PCR, including p(−107)Mcl-1luc, p(−51)Mcl-1luc, and p(+11)Mcl-1luc; the PCR products were sequenced to confirm their identity.
Specific mutations were introduced into the p(−162)Mcl-1luc plasmid using a two stage PCR method of Chen and Boxer (supra, 1995). The Ets site at nucleotides −129 to −121 was converted from CCGGAAGC (SEQ ID NO: 4) to CCTTAAGC (SEQ ID NO: 5;ΔEts); the Sp1 site at nucleotides −118 to −113 was converted from CCGCCC (SEQ ID NO: 6) to CTGACC (SEQ ID NO: 7;ΔSp1); and the SRE at nucleotides −106 to −97 was converted from CCTTTTATGG (SEQ ID NO:8) to CCTTCGGCTG (SEQ ID NO: 9;ΔSRE); altered nucleotides are indicated in bold type. All mutations were verified by sequencing. The PCR products containing the desired mutations were digested with BstEII and EcoRI, and ligated into the p(−162)Mcl-1luc plasmid, which had been digested with the same enzymes.
Electroporation was carried out with K-562 cells using the following protocol, which was based on preliminary experiments aimed at optimizing luciferase activity. Cells were washed twice and resuspended in PBS (5×10^6 cells in 0.5 ml) in the presence of 10 μg luciferase reporter plasmid, along with the pCMVhGH internal control plasmid used in most experiments (10 μg). After incubation on ice for 10 min, cells were electroporated (960 μF and 280 V; Bio-Rad Gene Pulser; Hercules Calif.), placed on ice for 15 min, then incubated at 37° C. (1×10^5 cells/ml) in Iscove's Modified Dulbecco's medium supplemented with 10% FBS, 100 units/ml penicillin, and 100 μg/ml streptomycin. After 17 hr, the cell suspension was divided into two portions, one of which was left untreated and the other of which was exposed to 1.7×10^−9 M TPA, which increased Mcl-1 expression in K-562 cells in a manner equivalent to that observed with 5×10^−10 TPA in ML-1 cells (Pahl et al., Expt. Hematol. 19:1038-1041 (1991), which is incorporated herein by reference). After 7 hr of exposure to TPA, when induction was at or near a peak level, cells were washed with PBS, then assayed in triplicate for luciferase activity (relative light units; Brasier et al., In “Current Protocols in Molecular Biology (Ausubel et al., eds.; John Wiley & Sons, N.Y. 1995), which is incorporated herein by reference; see pages 9.7.12-9.7.21) using a Microlite ML2250 Microtiter plate luminometer (Dynatech Laboratories; Chantilly Va.).
In most experiments, a human growth hormone reporter plasmid, pCMVhGH (10 μg), was used as a control for transfection efficiency. pCMVhGH yielded a linear increase in activity upon transfection with 2 to 10 μg plasmid, where activity with 2 μg of plasmid was near the limit of sensitivity of the hGH assay, but activity with 5 to 10 μg was sufficiently above background to be accurately quantified.
The experimental design, wherein an aliquot of cells electroporated with a test plasmid is divided into two portions, one of which was exposed to TPA and the other of which was not, was selected because CMV-based plasmids are subject to induction by TPA. […] Luciferase activity in both portions of cells was normalized to hGH production (assayed in triplicate in the portion of the sample not exposed to TPA).

Mcl-1 [2] = experiment: Endogenous Mcl-1 expression in ML-1 cells exposed to inducers and inhibitors; type: cell-based, human
Mcl-1 [3] = conditions: cited from earlier work
ML-1 cells = conditions: cited from earlier work
Erk-1 and Erk-2 = experiment: Phosphorylation state of MAP kinase proteins in ML-1 cells; type: cell-based, human
Hela cells = experiment: Transient transfection cell death assay in Hela cells (β-gal marker, morphology scoring); type: cell-based, human
Experimental: Two types of expression constructs were prepared for use in transfection into mammalian cells. In one set of constructs, Mcl-1 or the Mcl-1s/ΔTM variant were expressed in the pCR3.1 vector; in the second set of constructs, Mcl-1 was fused to green fluorescent protein (GFP). The Mcl-1 RT-PCR reaction products from the F4/R4 primer pair reactions (SEQ ID NOS: 15 and 17, respectively; cloned in pCR3.1) were digested with KpnI (a KpnI site is present in the F4 primer; SEQ ID NO: 15) and HindIII, as was full length Mcl-1(Mcl-1 clone p3.2 in pBluescriptII SK); Kozopas et al., supra, 1993) and the resulting 5′ region of the cDNA was isolated and ligated into pCR3.1 to yield full length Mcl-1 and Mcl-1s/ΔM. […]
The pCR3.1-based Mcl-1 clones were transiently transfected into subconfluent monolayers of Hela cells in 12 well plates using SUPERFECT (Qiagen). […] Forty hr after transfection, cells were fixed, stained for β-gal activity, and analyzed microscopically to assess cell morphology. Transfection experiments were performed in a double blind manner and cells were scored either as having a normal, viable morphology (flat, healthy cells) or an abnormal morphology characteristic of dying cells (dense, rounded, detaching cells). All blue staining cells in each dish were counted and the results were expressed as percentages of cells with viable versus dying phenotypes.

COc1cccc(-c2cc(=O)c3ccccc3o2)c1N [PD 98059]
decrease of TPA-induced luciferase activity ([1]; K-562 cells, 1654 base pair reporter, PD 98059 prior to TPA exposure): 78%
effect on TPA-induced increase in luciferase activity ([1]; K-562 cells, FIG. 2C): substantially, but not completely, inhibited
effect on basal luciferase activity ([1]; K-562 transfected cells, absence of TPA): caused a decline in basal activity
effect on up-regulation of Mcl-1 expression by TPA, colchicine and vinblastine (Mcl-1 [2]; ML-1 cells): prevented
basal Mcl-1 expression relative to value in the absence of PD 98059 (Mcl-1 [3]; endogenously expressing cells, 8.5 hr assay period): about 25%
induction of endogenous Mcl-1 by TPA in the presence of PD 98059 (Mcl-1 [3]; endogenously expressing cells): about 3.5 fold
cell death (ML-1 cells; ERK inhibitor applied alone): not accompanied by cell death
cell death (ML-1 cells; ERK inhibitor applied in conjunction with TPA): cells died by apoptosis

CCCCCCCCCCCCCC(=O)O[C@@H]1[C@@H](C)[C@@]2(O)[C@@H](C=C(CO)C[C@]3(O)C(=O)C(C)=C[C@@H]23)[C@@H]2C(C)(C)[C@]12OC(C)=O [TPA, 12-O-tetradecanoylphorbol acetate]
increase in reporter gene activity in response to TPA ([1]; 162 bp segment of human Mcl-1 5′-flanking sequence): approximately 10 fold
induction of luciferase activity by TPA ([1]; K-562 cells, Mcl-1-luciferase reporter constructs, test of cell lines): about 10 fold
increase in luciferase activity after treatment with TPA ([1]; K-562 cells, luciferase reporter driven by 1654 base pair segment of Mcl-1 5′ flanking region): approximately 8 fold
increase in activity in the presence of TPA over reduced basal value ([1]; K-562 cells, p(−107)Mcl-1luc and p(−51)Mcl-1luc): approximately 3.5 fold
induction by TPA ([1]; K-562 cells, p(−162)Mcl-1luc site mutation experiment (FIG. 3C)): 9 fold
increase in luciferase activity in the presence of TPA ([1]; K-562 cells, p(−1656)Mcl-1luc): about 10 fold
fold-induction by TPA ([1]; K-562 cells, wild-type plasmid, additional experiments): about 11 fold
fold-induction by TPA above reduced basal value ([1]; K-562 cells, ΔSRE/ΔEts plasmid): about 4 fold
induction of luciferase activity by TPA ([1]; p(−162)Mcl-1luc and p(−1663)Mcl-1luc, absence of pCMVhGH): about 13.5 fold
induction of luciferase activity by TPA ([1]; p(−162)Mcl-1luc and p(−1663)Mcl-1luc, presence of pCMVhGH): about 10.5 fold
Mcl-1 expression (Mcl-1 [2]; ML-1 cells): induced
phosphorylation of Erk-1 and Erk-2 (Erk-1 and Erk-2): increased phosphorylation
time at which increase in Mcl-1 mRNA is detectable (Mcl-1 [3]; ML-1 cells): ≤ 1 h
Mcl-1 mRNA level relative to peak value (Mcl-1 [3]; ML-1 cells, within 1 day): about 50%
Mcl-1 level with TPA above low basal level (Mcl-1 [3]; TPA without ERK inhibitor): ~10 fold

COc1cc2c(c(OC)c1OC)-c1ccc(OC)c(=O)cc1[C@@H](NC(C)=O)CC2 [colchicine]
Mcl-1 expression (Mcl-1 [2]; ML-1 cells): induced

CC(=O)O[C@H]1C(=O)[C@@]2(C)[C@H]([C@H](OC(=O)c3ccccc3)[C@]3(O)C[C@H](OC(=O)[C@H](O)[C@@H](NC(=O)c4ccccc4)c4ccccc4)C(C)=C1C3(C)C)[C@]1(OC(C)=O)CO[C@@H]1C[C@@H]2O [paclitaxel]
effect of pretreatment on increase in Mcl-1 expression produced by TPA (Mcl-1 [2]): not
effect of pretreatment on increase in Mcl-1 expression produced by colchicine or vinblastine (Mcl-1 [2]): blocked

CC[C@]1(O)C[C@@H]2CN(CCc3c([nH]c4ccccc34)[C@@](C(=O)OC)(c3cc4c(cc3OC)N(C)[C@H]3[C@@](O)(C(=O)OC)[C@H](OC(C)=O)[C@]5(CC)C=CCN6CC[C@]43[C@@H]65)C2)C1 [vinblastine]
Mcl-1 expression (Mcl-1 [2]; ML-1 cells): induced

B1: Mcl-1s/ΔTM: 271 amino acid pro-apoptotic Mcl-1 splice variant, SEQ ID NO: 3, exon 1 joined to exon 3 (protein, listed as Homo sapiens)
chain: MFGLKRNAVIGLNLYCGGAGLGAGSGGATRPGGRLLATEKEASARREIGGGEAGAVIGGSAGASPPSTLTPDSRRVARPPPIGAEVPDVTATPARLLFFAPTRRAAPLEEMEAPAADAIMSPEEELDGYEPEPLGKRPAVLPLLELVGESGNNTSTDGSLPSTPPPAEEEEDELYRQSLEIISRYLREQATGAKDTKPMGRSGATSRKALETLRRVGDGVQRNHETVFQGWVCGVLPCRGPRRWHQECAAGFCRCCWSRSWFGISNKIALL
killing of cells, quantitated by double blind scoring of blue staining cells (Hela cells): as effective as Bax
